For data set [1], the target named is T1, Enterobacter cloacae lectin A (EclA) (Enterobacter cloacae, UniProt A0A0H3CQ33). As to the kind of experiment: competitive fluorescence polarization; thermal shift (Tm […] to […] °C). Set-up: gene ECL_04191; full-length EclA and EclA-C (amino acids 140–283). It is filed as binding.
Data set [2] has as its target T1, Enterobacter cloacae lectin A (EclA). As to the kind of experiment: competitive fluorescence polarization displacement of […]. It is filed as binding. The arrangement: gene ECL_04191; full-length EclA and EclA-C (amino acids 140–283).
Data set [3] deals with the molecule itself. As to the kind of experiment: dynamic light scattering; Zetasizer Nano-ZS; 100 uM EclA-L or 200 uM EclA-N-tag and EclA-C in TBS/Ca (20 mM Tris, 137 mM NaCl, 2.6 mM KCl, pH 7.4, 1 mM CaCl2), 25 C; molecular weight estimated from the hydrodynamic radius.

T1 sequence (A0A0H3CQ33 entry or part of it): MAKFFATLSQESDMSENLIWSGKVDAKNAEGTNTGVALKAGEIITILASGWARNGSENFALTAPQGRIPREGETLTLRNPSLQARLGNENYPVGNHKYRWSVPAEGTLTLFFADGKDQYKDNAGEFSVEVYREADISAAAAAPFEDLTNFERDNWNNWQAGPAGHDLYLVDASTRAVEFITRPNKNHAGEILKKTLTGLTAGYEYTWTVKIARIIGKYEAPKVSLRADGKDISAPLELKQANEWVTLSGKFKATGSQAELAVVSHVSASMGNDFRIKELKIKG

As to `C[C@@H]1OC(O)[C@@H](O)[C@H](O)[C@@H]1O` (stereo partly drawn) [compound 1, L-fucose], in data set [1], the IC50 was 4 to 4.7 mM.
As for `CO[C@H]1O[C@@H](C)[C@@H](O)[C@@H](O)[C@@H]1O` [compound 13, methyl β-L-fucoside], the IC50 in data set [2] lay in the range of 1.5 to 1.8 mM.
On the same count and under the same terms, in the case of `CO[C@@H]1O[C@@H](C)[C@@H](O)[C@@H](O)[C@@H]1O` [compound 12, methyl α-L-fucoside] it was 1.3 to 1.4 mM.

B1: EclA-N-tag, N-terminally His6-tagged EclA N terminus (amino acids 2-140) (domain or fragment)
chain: AKFFATLSQESDASENLIWSGKVDAKNAEGTNTGVALKAGEIITILASGWARNGSENFALTAPQGRIPREGETLTLRNPSLQARLGNENYPVGNHKYRWSVPAEGTLTLFFADGKDQYKDNAGEFSVEVYREADISAAA
notes: EclA, E. cloacae subsp. cloacae ATCC 13047, residues 2-140, based on EclA-L (M14A); also called N-terminal domain of EclA; not shown: His6, N-terminal, kept
B1: the “stoichiometry N” value in data set [3] was 2.

B2: EclA-L (EclA-M14A), full-length Enterobacter cloacae lectin A with the second start codon mutated (natural protein)
chain: MAKFFATLSQESDASENLIWSGKVDAKNAEGTNTGVALKAGEIITILASGWARNGSENFALTAPQGRIPREGETLTLRNPSLQARLGNENYPVGNHKYRWSVPAEGTLTLFFADGKDQYKDNAGEFSVEVYREADISAAAAAPFEDLTNFERDNWNNWQAGPAGHDLYLVDASTRAVEFITRPNKNHAGEILKKTLTGLTAGYEYTWTVKIARIIGKYEAPKVSLRADGKDISAPLELKQANEWVTLSGKFKATGSQAELAVVSHVSASMGNDFRIKELKIKG
notes: EclA (Enterobacter cloacae lectin A), E. cloacae subsp. cloacae ATCC 13047, ECL_04191, 283 aa, with M14A; Tag-free, pET22b; Made to have one protein species only (second ATG at codon 14 removed); also called EclA-L (M14A); source: E. coli, expressed and purified as reported for EclA
As for B2, in data set [3], the “stoichiometry N” value was 2.

B3: EclA-C, native EclA C terminus (amino acids 140-283) (domain or fragment)
chain: MAAPFEDLTNFERDNWNNWQAGPAGHDLYLVDASTRAVEFITRPNKNHAGEILKKTLTGLTAGYEYTWTVKIARIIGKYEAPKVSLRADGKDISAPLELKQANEWVTLSGKFKATGSQAELAVVSHVSASMGNDFRIKELKIKG
notes: EclA, E. cloacae subsp. cloacae ATCC 13047, stated as amino acids 140-283 (144 aa); Tag-free; a selenomethionine-labelled form was also crystallised; also called C-terminal domain of EclA; source: E. coli BL21(DE3), purified (fucose-coupled sepharose, L-fucose elution)
For B3, in data set [3], the “stoichiometry N” value is 2.

In general, IC50 refers to the midpoint of a concentration-inhibition curve. Broadly, the stoichiometry N is the number of molecules, sites or subunits per partner or assembly.

The values above are taken from PMC11875179, “A fucose-binding superlectin from Enterobacter cloacae with high Lewis and ABO blood group antigen specificity” (The Journal of Biological Chemistry, 2024).
